Results published in PubChem BioAssay AID179 (DTP/NCI, 2004).
Activity calls are given as the source filed them.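 How the source made its calls: active means compounds giving half or more protection of infected cells from virus-caused growth loss, again on retest; inactive means the rest.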 Where a SMILES comes first, the peptide text is derived from it. [ ]: non-standard residue; d: D form. The star is where a group is joined. ξ: configuration not given here. Boc = CC(C)(C)OC(=O)*; ξV = CC(C)C(N)C(=O)O; OBn = c1ccc(CO*)cc1

Tested on: CEM cells HIV-1 protection, formazan growth assay
Test: NCI AIDS Antiviral Assay
Conditions: for IC50: measured here: growth of uninfected CEM cells
Method in brief: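 CEM (human) cells, HIV-1 infected vs uninfected, 5-point dosing, formazan growth read-out. Retest threshold 50% protection.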

Compound | EC50 [µM] | IC50 [µM] | outcome
O=C(O)[C@@H]1CSC(C(O)CO)N1 (some centres not stated) | > 200 | > 200 | 
C=C1N(C=O)C(C)(C)N(O)C1(C)C | > 200 | > 200 | 
CCOP(=O)(OCC)c1c(C(=O)OC)cc(=O)[nH]c1-c1ccc(C)cc1 | > 200 | 7.94 | 
COc1ccc(C(=O)CC(=O)c2ccc3ccccc3n2)c(O)c1OC | > 200 | 12.9 | 
Cc1oc2cc(O)cc(O)c2c(=O)c1C | > 200 | 155 | 
COC1/C=C/O[C@@]2(C)Oc3c(C)c(O)c4c(O)c(cc(O)c4c3C2=O)NC(=O)/C(C)=C\C=C\[C@H](C)C(O)[C@@H](C)[C@@H](O)[C@@H](C)[C@H](OC(C)=O)[C@@H]1C (some centres not stated) | > 174 | 8.13 | 
O=c1c2ccccc2oc2nc3cc(Cl)ccc3n12 | > 200 | > 200 | 
COc1cccc(/C=C(/C(C)=O)C(=O)c2ccccc2)c1 |  |  | inactive
Cc1cccc(C2ON=C(c3ccccc3)N2C23CC4CC(CC(C4)C2)C3)c1 (configuration not stated) | > 200 | 49 | 
C1C[S+]2CC[S+]1CC2 | > 200 | > 200 | 
COc1ccc(N2C(Cl)C(=O)C2c2c[nH]c3ccccc23)cc1 (configuration not stated) | > 151 | 132 | 
COc1ccc2c(c1OC)C(=O)N1C2=Cc2c(cc3c(c2OC)OCO3)CC1N(C)C (configuration not stated) | > 200 | 26.9 | 
CCC1(O)CC2CC(=O)OC2C1O (configuration not stated) | > 200 | > 200 | 
COC(=O)C(Nc1ccc(OC)cc1)c1ccccc1 (configuration not stated) | > 200 | 148 | 
NC1=NC(c2ccccc2)C2=C(N1)C(=O)N(Cc1ccccc1)C2 (configuration not stated) | > 204 | 72.4 | 
COC(=O)C(=O)c1cc2ccccc2n1S(=O)(=O)c1ccccc1 | > 200 | > 200 | 
CCCCC(=O)NS(=NC(=O)c1ccccc1)C(Cl)(Cl)Cl (configuration not stated) | > 200 | > 200 | 
CN1C(CC(O)(c2ccccc2)c2ccccc2)CCCC1CC(O)(c1ccccc1)c1ccccc1 (configuration not stated) | > 200 | 57.5 | 
O=S(=O)(C1=CC(S(=O)(=O)c2ccccc2)CN(Cc2ccccc2)C1c1cccc2ccccc12)c1ccccc1 (configuration not stated) |  |  | inactive
COc1ccc(COCCOCc2nc(C#N)c(N)o2)cc1 | > 200 | 135 | 
CN=C1Nc2ccc(Cl)cc2C(c2ccccc2)=NN1C | > 120 | 93.3 | 
C(/Cc1ccc2c(c1)OCO2)=N\NC1=NCCCN1 | > 200 | 38.9 | 
CN(C)CCCOCCn1c2c(c3ccccc31)CCCC2 | > 200 | 32.4 | 

Compound | EC50 [µM] | IC50 [µM] | outcome
CCOC(=O)c1sc2nc(-c3ccccc3)nn2c1CBr | > 200 | 1.07 | 
N#CC(C#N)=CN1C(=O)CNC1=S | > 200 | > 200 | 
C=CC1=CC(C)C[C@]1(O)C(=O)OC (some centres not stated) | > 1380 | 708 | 
Cc1cc(C)c(SSc2c(C)cc(C)cc2C)c(C)c1 | > 200 | 28.2 | 
O=c1[nH]n(CCc2ccccc2CCl)c2ccc([N+](=O)[O-])cc12 | > 200 | 50.1 | 
CCOC(=O)CC1CCN(C(=O)c2ccccc2)C2Cc3c([nH]c4ccccc34)C12C[N+](=O)[O-] (configuration not stated) | > 200 | 85.1 | 
CN(C)CCCn1cnc2ncccc2c1=O |  |  | inactive
CC1=CC(C)C(=O)N(CCN2CCOCC2)C(C)=C1 (configuration not stated) | > 955 | > 955 | 
CN1C(=O)CCC1(O)C1C=CC=CC1 (configuration not stated) | > 1290 | > 1290 | 
COc1ccccc1OCC(COC(=O)Nc1ccc(C)cc1)OC(=O)Nc1ccc(C)cc1 (configuration not stated) | > 77.6 | 72.4 | 
COc1ccc(C(=O)Nc2cc(Cc3cc(NC(=O)c4ccc(OC)c(C(=O)O)c4)c(OC)c(C(=O)O)c3)cc(C(=O)O)c2OC)cc1C(=O)O | > 50.1 | > 50.1 | 
CC1(O)CSc2c(C=O)c3ccccc3n21 (configuration not stated) | > 1070 | 67.6 | 
COc1ccc(/C=C(/NC(=O)c2ccccc2)C(=O)Nc2ccccc2)cc1OC | > 200 | > 200 | 
COc1ccc(Br)c(CCC(CO)C2=CCC3(CC2)OCCO3)c1 (configuration not stated) | 15.8 | 87.1 | 
CN1C(c2ccccc2)=CC(=O)C(O)=C(c2ccccc2)S1(=O)=O | > 200 | > 200 | 
COc1c(C=O)c2c(c(OC)c1OC)-c1ccc(OC)c(=O)cc1[C@@H](NC(C)=O)CC2 | > 0.2 | 0.011 | 
CC(C)C(NC(=O)CNC(=O)OC(C)(C)C)C(=O)NCC(=O)OCc1ccccc1 (stereo not drawn) (Boc-Gly-[ξV]-Gly-OBn) | > 200 | > 200 | 
CCn1c2ccccc2c2ccc3c(c21)C(=O)c1ccccc1C3=O | > 3.24 | > 3.24 | 
C=C1CC[C@@](C)(c2ccc(C)cc2)C1C (some centres not stated) |  |  | inactive
c1ccc2c(c1)CCN(NCCN1CCCC1)C2 |  |  | inactive
COc1cnc(NS(=O)(=O)c2ccc(N)cc2)nc1 | > 200 | > 200 | 
CC(C)=CC1CC(=[N+]=[N-])C(=O)C1(C)C (configuration not stated) | > 186 | > 186 | 
O=C1OC[C@@H]2[C@@H](O)CCCCCN12 | > 200 | > 200 | 
